Experimental data as given in US10239957B2, “Peptide containing conjugates for dual molecular delivery of oligonucleotides” (Merck Sharp & Dohme Corp., priority 2013, dated 2019).

Molecular target: T1, RISC (Mus musculus, UniProt Q8CJG0)
T1 construct: from tissue; host or cells: liver of female CD-1 mice (5 mm liver punches)
Assay: Quantitation of siRNA bound to RISC (RISC loading) in liver
Format: in vivo, mice
Settings: siRNA with vinyl phosphonate vs siRNA-I
Method: Female CD-1 mice (Charles River) were injected in accordance with either a sequential dosing paradigm or a co-dosing paradigm. In the sequential dosing paradigm, the targeted siRNA (SCE) is dosed at t=0 and the targeted peptide is separately dosed up to 2 hr before the SCE (−2 hr) or up to 24 hr after the SCE (+24 hr). In the co-dosing paradigm, the SCE and peptides are co-formulated and dosed together in the same formulation as a single injection at t=0. The mice were dosed either by intravenous (i.v.) or subcutaneous (s.c.) injection of SCE and peptide. For the i.v. doses, the compounds were injected into the tail vein of the mice. For the s.c. doses, the compounds were injected in the subcutaneous space on the back of the mouse between the shoulder blades. At the indicated harvest times (measured from t=0 when the siRNA was dosed, regardless of when the peptide was dosed), the animals were sacrificed and 3 mm liver punches were collected, preserved in RNAlater (Ambion), and stored at 4° C. Separate 5 mm liver punches were collected, placed in 96-well plates, frozen on dry ice, and stored at −80° C. until use. […]

T1 sequence (Q8CJG0 whole entry): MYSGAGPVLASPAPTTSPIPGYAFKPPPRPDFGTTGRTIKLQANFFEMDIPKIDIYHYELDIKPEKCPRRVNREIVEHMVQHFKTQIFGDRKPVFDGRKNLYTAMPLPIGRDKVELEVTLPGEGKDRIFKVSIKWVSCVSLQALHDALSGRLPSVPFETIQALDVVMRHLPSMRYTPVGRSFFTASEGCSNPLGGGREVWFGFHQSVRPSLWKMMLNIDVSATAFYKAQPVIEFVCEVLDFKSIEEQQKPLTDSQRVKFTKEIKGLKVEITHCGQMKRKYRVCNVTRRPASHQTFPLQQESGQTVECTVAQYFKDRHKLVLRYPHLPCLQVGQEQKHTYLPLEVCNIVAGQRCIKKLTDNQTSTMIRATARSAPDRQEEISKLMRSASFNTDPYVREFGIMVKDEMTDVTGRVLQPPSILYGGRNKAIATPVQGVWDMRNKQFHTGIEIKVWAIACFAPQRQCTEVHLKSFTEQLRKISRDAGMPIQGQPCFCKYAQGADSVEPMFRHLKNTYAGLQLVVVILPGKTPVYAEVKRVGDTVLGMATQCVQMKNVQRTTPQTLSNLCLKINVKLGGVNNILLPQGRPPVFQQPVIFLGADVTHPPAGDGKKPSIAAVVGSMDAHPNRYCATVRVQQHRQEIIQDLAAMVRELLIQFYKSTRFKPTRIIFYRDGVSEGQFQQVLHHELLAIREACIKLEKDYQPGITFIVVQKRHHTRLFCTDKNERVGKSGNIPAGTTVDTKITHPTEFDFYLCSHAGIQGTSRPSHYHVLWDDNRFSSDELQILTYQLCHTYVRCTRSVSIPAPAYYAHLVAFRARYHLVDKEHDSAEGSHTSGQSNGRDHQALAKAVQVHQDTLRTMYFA

Substance: siRNA-III: CTNNB1 siRNA; passenger SEQ ID NO 1803, guide SEQ ID NO 1806 (vinylPmoeT) (sense CUGUUGGAUUGAUUCGAAAUU; guide TUUCGAAUCAAUCCAACAGUU; vinylphosphonate MOE T; (1)..(1) aminohexyl phosphate inverted abasic cap; (1)..(2) 2′-O-methyl; (3)..(3) 2′-deoxy-2′-fluoro; (4)..(5) 2′-O-methyl; (6)..(8) 2′-deoxy-2′-fluoro; (9)..(10) 2′-O-methyl; (11)..(12) 2′-deoxy-2′-fluoro; (13)..(15) 2′-O-methyl; (16)..(19) 2′-deoxy-2′-fluoro; (20)..(21) 2′-O-methyl; (20)..(21) phosphorothioate internucleotide linkage; (21)..(21) inverted abasic cap; (1)..(1) terminal vinyl phosphate; (1)..(1) 2′-methoxyethoxy; (2)..(21) ribonucleotide unmodified or modified as described for this sequence; (2)..(2) 2′-deoxy-2′-fluoro; (3)..(3) 2′-O-methyl; (4)..(4) …)
- Time course of RISC loading (FIG. 5): rate of RISC loading: faster RISC loading
